Assay results reported in a melting point compilation (Tetko et al.; mined from patent text by program, amines drawn as free bases though some values may be those of a salt).

Row | SMILES | melting point [°C]
1 | O=C(Cl)c1cn(CCCCl)c(=O)c2ccccc12 | 101
2 | CN1Cc2c(F)ncn2-c2ccccc2C1=O | 171 to 172
3 | COc1ccc(CC(CCCC(C#N)(c2ccc(OC)c(OC)c2)C(C)C)[N+](=O)[O-])cc1OC (stereo not given) | 107 to 110
4 | CCOC(=O)C(CC)c1ccc(N2Cc3ccccc3C2=N)cc1 (stereo not given) | 157 to 159
5 | COc1ccc2c(c1)c1c(n2Cc2ccc(C(C)(C)C)cc2)COC(=O)C1=O | 238 to 239
6 | CNc1nc(C)c(-c2sc(NC)nc2C)s1 | > 280
7 | Nc1cc(OCC(O)CO)nc(N)n1 (stereo not given) | 160
8 | CCN(CC)C(=O)c1ccc(I)cc1 | 68 to 70
9 | CC(C)(C)OC(=O)N[C@H](Cc1ccc(Cl)c(Cl)c1)C(=O)N1CCC[C@H]1C(=O)NCC1CCc2n[nH]cc2C1 (stereo not given in full) | 100 to 103
10 | Fc1ccc(F)c(-n2nnc3cccnc32)c1 | 140
11 | CC(C)CC(=O)NC(=O)c1nnn(Cc2ccccc2)c1N | 138 to 150
12 | CCNC(=O)C(C)Oc1ncn(-c2cccc(C(F)(F)F)c2)n1 (stereo not given) | 135 to 137
13 | N#Cc1cnc2c(cc([N+](=O)[O-])c3nncc32)c(-c2ccccc2Cl)n1 | 193 to 196
14 | COc1cc([N+](=O)[O-])ccc1C(=O)N1CCCCC1 | 104
15 | CCOC(=O)c1cc(O)c(C(=O)c2ccccc2)c([N+](=O)[O-])c1 | 167 to 168
16 | CCOC(=O)c1cc2c(nc1C)C(CBr)CCCC2 (stereo not given) | 50 to 51
17 | CCN(CC)CCC1CCN(CCNC(=O)N2c3ccccc3C(=O)Nc3cccnc32)CC1 | 170 to 172
18 | CN(CC(=C1NCCCS1)[N+](=O)[O-])c1ccccc1 | 105 to 106
19 | O=C(O)C(Sc1nc2cc(Cl)ccc2s1)c1ccccc1 (stereo not given) | 190 to 192
20 | CCOC(=O)Cc1csc(-c2ncccc2O)n1 | 85.5 to 86.5
21 | Nc1c(Cl)cc(C(O)CNCCC#CCOCCc2ccccc2)cc1Cl (stereo not given) | 62.5 to 63
22 | CCOP(=O)(OCC)C(Nc1ncc(-c2ccccc2)s1)P(=O)(OCC)OCC | 151 to 153
23 | CC(C)(C)c1ccc(NC(=O)NCc2ccc3c(c2)CN(C2CCC(=O)NC2=O)C3=O)cc1 (stereo not given) | 254 to 256
24 | O=C(O)Cc1cccc(Oc2ccccc2)c1O | 132 to 135
25 | CC1(C)SC2C(NC(=O)Nc3ccccc3)C(=O)N2C1c1nnn[nH]1 (stereo not given) | 110 to 120
26 | Cc1nc[nH]c1CSCCNC(=N)NS(N)(=O)=O | 130 to 133
27 | OCC1OC(n2c(Cl)nc3cc(Cl)c(Cl)cc32)C(F)C1O (stereo not given) | 223

Continued, values first:

Row | melting point [°C] | SMILES
28 | 322 to 323 | Nc1nc(N)c2c(ccc3[nH]c(-c4ccccc4)cc32)n1
29 | 80 to 100 | C[C@H](CO)Nc1nc(SCc2cccc(F)c2F)nc2[nH]c(=O)c(NCc3ccccc3)nc12
30 | 183 to 184 | c1ccc(Nc2nc(-c3ccco3)nc3ccccc23)cc1
31 | 110 to 115 | O=C(NCc1ccc(C=NNO)cc1)C1Cc2ccccc2N1S(=O)(=O)c1ccc(-c2cccc(C(F)(F)F)c2)cc1 (stereo not given)
32 | 183 to 184 | COC(=O)c1ccc(-c2cc(-c3ccc(C(F)(F)F)cc3)on2)cc1
33 | 35 to 38 | Cc1c(C(=O)N(C)Cc2ccc3c(Br)c(OCC#N)ccc3c2)oc2ccccc12
34 | 83 to 87 | Cn1nc(-c2ccc(F)cc2)c(-c2ccncc2)c1CCCc1ccccc1
35 | 92 | CN1CCC(c2c[nH]c3ccc(C(=O)c4ccc5ccccc5c4)cc23)CC1
36 | 189 to 191 | O=C(c1ccc(CN2CC=CCC2)cc1)N1CCN2C(=O)OC(c3ccccc3)(c3ccccc3)C2C1 (stereo not given)
37 | 111 to 112 | COc1cc(Cn2cc(CCC(=O)O)c(-c3ccccc3)c2)cc(OCc2csc(-c3cnccn3)n2)c1
38 | 167 to 168 | COc1ccc(Nc2ccc(OCc3ccccc3)cc2)c(C(=O)O)c1
39 | 188 to 190 | O=C(c1ccc(OCc2ccccc2)cc1)c1ccc(OCc2ccccc2)cc1
40 | 131 to 132 | CCn1c2ccccc2c2cc(C=Cc3ccc(N)cc3)ccc21
